Results taken from patent US11040976B2, “Substrate selective inhibitors of insulin-degrading enzyme (IDE) and uses thereof” (President and Fellows of Harvard College, priority 2015, dated 2021).

Key:
[1] = biological target: T1, recombinant human IDE42-1019 (Homo sapiens, UniProt P14735); assay: Protease assay with fluorogenic peptide substrate Mca-[…](Dnp)-OH; type: biochemical; details: fluorogenic peptide Mca-RPPGFSAFK(Dnp)-OH; for Emax: read-out: Imax (%) Proteolysis (inhibition maximum); for IC50: apparent IC50 for compounds with submaximal inhibition, read-out: IC50 (μM) Proteolysis
T1 construct: recombinant human IDE42-1019 (R&D Systems); purchased R&D Systems
T1 sequence (P14735 42-1019): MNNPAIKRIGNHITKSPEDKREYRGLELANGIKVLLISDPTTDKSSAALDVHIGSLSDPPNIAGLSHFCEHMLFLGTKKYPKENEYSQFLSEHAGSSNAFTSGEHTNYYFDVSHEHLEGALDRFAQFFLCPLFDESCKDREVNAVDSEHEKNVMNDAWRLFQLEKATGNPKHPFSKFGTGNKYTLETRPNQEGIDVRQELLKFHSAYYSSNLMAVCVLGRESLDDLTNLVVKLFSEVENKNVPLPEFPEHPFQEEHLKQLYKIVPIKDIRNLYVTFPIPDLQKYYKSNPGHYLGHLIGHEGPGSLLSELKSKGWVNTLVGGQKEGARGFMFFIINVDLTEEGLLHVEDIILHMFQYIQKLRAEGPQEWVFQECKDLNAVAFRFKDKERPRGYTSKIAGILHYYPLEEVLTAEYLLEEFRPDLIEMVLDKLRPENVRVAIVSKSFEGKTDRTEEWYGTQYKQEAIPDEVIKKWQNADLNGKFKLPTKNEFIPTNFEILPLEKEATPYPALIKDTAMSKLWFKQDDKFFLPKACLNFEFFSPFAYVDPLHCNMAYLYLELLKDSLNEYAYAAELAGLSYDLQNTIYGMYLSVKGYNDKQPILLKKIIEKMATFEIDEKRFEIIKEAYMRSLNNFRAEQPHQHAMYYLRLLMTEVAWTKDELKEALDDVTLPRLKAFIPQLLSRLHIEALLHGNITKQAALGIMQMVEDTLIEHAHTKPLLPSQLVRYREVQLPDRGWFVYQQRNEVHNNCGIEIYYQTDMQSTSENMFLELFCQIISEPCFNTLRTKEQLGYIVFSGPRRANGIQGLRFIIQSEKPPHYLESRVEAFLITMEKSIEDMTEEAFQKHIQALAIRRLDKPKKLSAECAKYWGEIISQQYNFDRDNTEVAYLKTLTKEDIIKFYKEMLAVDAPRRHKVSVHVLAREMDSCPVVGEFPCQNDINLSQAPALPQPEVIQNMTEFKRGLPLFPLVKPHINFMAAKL

[2] = biological target: T2, Human N-His6-IDE42-1019 (E. coli expressed) (Homo sapiens, UniProt P14735); assay: Fluorescence anisotropy high-throughput screening assay (displacement of probe FL-6b); type: binding
T2 construct: Human N-His6-IDE42-1019 (E. coli expressed); made in house; host or cells: E. coli (Rosetta 2 (DE3) pLysS, plasmid pTrcHis-A)
T2 sequence (P14735 42-1019): T1 sequence (P14735 42-1019)
Method: The fluorescence anisotropy screening method and probe FL-6b are described in PCT application PCT/US2014/064322, incorporated herein by reference.
Human N-His6-IDE42-1019 (E. coli expressed) was mixed with fluorescein-labeled macrocycle FL-6b:
[drawing 802] in 50 mM Tris buffer pH 8.0, with 1 M NaCl, at 25° C. Optimum signal was obtained using a mixture of […] probe FL-6b and 0.5 μM IDE. The “diversity-oriented (DOS) synthesis informer set” compound plates were pinned onto 384-well plates containing the enzyme-probe mixture (50 μL/well). The azetidine screen was pre-printed on 384-well plates and the enzyme-probe mixture was added (50 μL/well). The final compound concentration was 20 μM. IDE inhibitor 6bK was used as a positive control at a final concentration of 1 μM. After 30 minutes of equilibration, the increase in fluorescence anisotropy was recorded using an EnVision spectrophotometer (excitation 492 nm, emission 523 nm). The fluorescence anisotropy was independently measured twice for each screened compound. The Z-scores for each pair of measurements are plotted in FIG. 1A (DOS informer set) and FIG. 1B (azetidines), and average Z-scores are listed for exemplary compounds in Table E1.
Z-scores were calculated based on the raw anisotropy measured for each well according to Eq. 1, wherein x is the raw anisotropy value of the well, μ is the mean of the anisotropy of the negative control wells (DMSO) for the plate, and σ is the standard deviation in anisotropy of the negative control wells (DMSO) for the plate.

[3] = plateau at high inhibitor concentration
[4] = final compound concentration 20 μM (6bK control 1 μM), values without asterisk

| Compound | Emax [1, 3] | Average Z-score (Fluorescence anisotropy) [2, 4] | IC50 [1] | Imax (%) Proteolysis (inhibition maximum) [1, 3] | Average Z-score (Fluorescence anisotropy) ([2]; values marked *: from the screen using the diversity-oriented synthesis (DOS) informer set of plates, 20 μM) |
| --- | --- | --- | --- | --- | --- |
| Cc1ccccc1-c1ccc([C@H]2[C@@H](CO)N3CCCCN(C(=O)NC4CCCC4)C[C@H]23)cc1 [compound 255] | 50% | −17.33 |  |  |  |
| Cc1ccccc1-c1ccc([C@H]2[C@@H](CO)N3CCCCN(C(=O)Nc4cccc(F)c4)C[C@@H]23)cc1 [compound 269] | 30% | −4.36 |  |  |  |
| Cc1cccc(-c2ccc([C@@H]3[C@@H](CO)N4CCCCN(C(=O)c5cccnc5)C[C@@H]34)cc2)c1 [compound 296] |  | −3.25 | > 100 µM |  |  |
| Cc1cccc(-c2ccc([C@@H]3[C@H]4CN(C(=O)c5ccncc5)CCCCN4[C@H]3CO)cc2)c1 [compound 316] |  | −16.96 | > 10 µM |  |  |
| Cc1ccccc1-c1ccc([C@H]2[C@H](CO)N3C(=O)CN(C(=O)Cc4ccccn4)C[C@@H]23)cc1 [compound 321] | 50% | −17.72 |  |  |  |
| Cc1cccc(-c2ccc([C@@H]3[C@@H](CO)N4CCCCN(S(=O)(=O)c5cn(C)cn5)C[C@@H]34)cc2)c1 [compound 342] | 50% | −17.53 | 0.6 µM |  |  |
| Cc1cccc(-c2ccc([C@@H]3[C@@H](CO)N4C(=O)CN(C(=O)Cc5ccccn5)C[C@@H]34)cc2)c1 [compound 348] | 40% | −11.8 | 7 µM |  |  |
| Cc1ccccc1-c1ccc([C@@H]2[C@@H](CO)N3CCCCN(C(=O)c4cccnc4)C[C@@H]23)cc1 [compound 353] | 50% | −7.98 |  |  |  |
| Cc1ccccc1-c1ccc([C@H]2[C@@H](CO)N3CCCCN(C(=O)c4cccnc4)C[C@H]23)cc1 [compound 397] |  | −11.37 |  | 70% |  |
| CCS(=O)(=O)N1CCCCN2[C@H](CO)[C@@H](c3ccc(-c4ccccc4C)cc3)[C@@H]2C1 [compound 416] | 60% | −18.29 |  |  |  |
| COc1cccc(-c2ccc([C@@H]3[C@@H](CO)N4CCCCN(C(=O)Nc5ccncc5)C[C@@H]34)cc2)c1 [compound 433] |  | −2.37 | > 100 µM |  |  |
| COc1ccccc1-c1ccc([C@H]2[C@@H](CO)N3CCCCN(C(=O)NC4CCCC4)C[C@H]23)cc1 [compound 439] | 50% | −19.08 | 2.5 µM |  |  |
| Cc1cccc(-c2ccc([C@@H]3[C@@H](CO)N4CCCCN(C(=O)c5cccnc5)C[C@@H]34)cc2)c1 [compound 443] |  | −3.13 | > 100 µM |  |  |
| O=C(c1ccccn1)N1CC(=O)N2[C@@H](CO)[C@@H](c3ccc(C#Cc4ccccc4)cc3)[C@@H]2C1 [compound 479] | ~100% | −19.91 | < 10 µM |  |  |
| Cc1ccccc1-c1ccc([C@H]2[C@H](CO)N3C(=O)CN(C(=O)c4cccnc4)C[C@@H]23)cc1 [compound 491] | 70% | −12.38 | > 10 µM |  |  |
| Cc1cccc(-c2ccc([C@@H]3[C@@H](CO)N4CCCCN(S(=O)(=O)c5cccc(C)c5)C[C@@H]34)cc2)c1 [compound 496] | 30% | −9.77 | 2.5 µM |  |  |
| Cc1ccccc1-c1ccc([C@H]2[C@@H](CO)N3C(=O)CN(C(=O)Nc4ccc(F)cc4)C[C@H]23)cc1 [compound 510] | 30% | −21.34 | 0.5 µM |  |  |

| Compound | Emax [1, 3] | Average Z-score (Fluorescence anisotropy) [2, 4] | IC50 [1] | Imax (%) Proteolysis (inhibition maximum) [1, 3] | Average Z-score (Fluorescence anisotropy) ([2]; values marked *: from the screen using the diversity-oriented synthesis (DOS) informer set of plates, 20 μM) |
| --- | --- | --- | --- | --- | --- |
| OC[C@H]1[C@@H](c2ccc(C#Cc3ccccc3)cc2)[C@@H]2CN(Cc3cncnc3)CCCCN12 [compound 525] | ~100% | −16.2 | < 10 µM |  |  |
| COc1ccc(NC(=O)N2CCCCN3[C@H](CO)[C@H](c4ccc(-c5ccccc5C)cc4)[C@@H]3C2)cc1 [compound 529] | 30% | −0.82 |  |  |  |
| Cc1ccccc1-c1ccc([C@H]2[C@H](CO)N3C(=O)CN(C(=O)Nc4cccc(F)c4)C[C@@H]23)cc1 [compound 534] | 70% | −3.03 | 7 µM |  |  |
| COC(=O)N1CCCCN2[C@H](CO)[C@@H](c3ccc(-c4cccc(C)c4)cc3)[C@@H]2C1 [compound 559] |  | −5.28 | > 100 µM |  |  |
| CCCCC(=O)N1CC(=O)N2[C@@H](CO)[C@@H](c3ccc(C#Cc4cccc(OC)c4)cc3)[C@@H]2C1 [compound 564] |  | −1.33 | > 100 µM |  |  |
| Cc1ccccc1-c1ccc([C@H]2[C@H](CO)N3C(=O)CN(C(=O)c4ccncc4)C[C@@H]23)cc1 [compound 580] | 70% | −7.49 |  |  |  |
| Cc1ccccc1-c1ccc([C@@H]2[C@@H](CO)N3C(=O)CN(S(C)(=O)=O)C[C@@H]23)cc1 [compound 585] | 40% |  | 2.5 µM |  | −12.65* |
| COc1ccccc1-c1ccc([C@H]2[C@@H](CO)N3CCCCN(C(=O)c4ccncc4)C[C@H]23)cc1 [compound 586] | 70% | −17.17 | 7 µM |  |  |
| COc1cccc(C#Cc2ccc([C@@H]3[C@H](CO)N4C(=O)CN(C(C)=O)C[C@@H]34)cc2)c1 [compound 608] | ~100% | −15.34 | < 10 µM |  |  |
| Cc1cccc(-c2ccc([C@@H]3[C@@H](CO)N4C(=O)CN(C(=O)c5cnccn5)C[C@@H]34)cc2)c1 [compound 653] | 90% | −17.51 |  |  |  |
| Cc1cccc(-c2ccc([C@@H]3[C@@H](CO)N4CCCCN(Cc5cncnc5)C[C@@H]34)cc2)c1 [compound 654] |  | −6.65 | > 100 µM |  |  |
| Cc1ccccc1-c1ccc([C@H]2[C@@H](CO)N3CCCCN(C(=O)c4cccnc4)C[C@@H]23)cc1 [compound 712] |  | −4.78 | > 100 µM |  |  |
| Cc1ccccc1-c1ccc([C@H]2[C@@H](CO)N3CCCCN(S(=O)(=O)c4cn(C)cn4)C[C@H]23)cc1 [compound 736] | 35% | −16.6 | 2.5 µM |  |  |
| Cc1ccccc1-c1ccc([C@@H]2[C@H]3CN(C(=O)c4cccnc4)CC(=O)N3[C@H]2CO)cc1 [compound 745] | 70% | −19.67 | 2.5 µM |  |  |
| Cc1ccccc1-c1ccc([C@H]2[C@@H](CO)N3CCCCN(CC4CC4)C[C@@H]23)cc1 [compound 768] |  | −3.48 | > 100 µM |  |  |
| Cc1cccc(-c2ccc([C@@H]3[C@@H](CO)N4CCCCN(C(=O)NC(C)C)C[C@@H]34)cc2)c1 [compound 777] | 30% | −5.51 |  |  |  |
| Cc1cccc(-c2ccc([C@@H]3[C@H](CO)N4CCCCN(S(=O)(=O)c5cn(C)cn5)C[C@@H]34)cc2)c1 [compound 795] | 40% | −19.52 |  |  |  |
